The values below come from patent US20220363665A1, “QUINOLINE COMPOUNDS FOR THE TREATMENT OF AUTOIMMUNE DISEASE” (Hoffmann-La Roche Inc., priority 2019, published 2022).

A value given as a limit tells only on which side of the number the result lay.

The test deals with T1, human TLR9 (Homo sapiens, UniProt Q9NR96).
T1 construct: host or cells: HEK293 (HEK-Blue hTLR9)
T1 sequence (Q9NR96 26-1032): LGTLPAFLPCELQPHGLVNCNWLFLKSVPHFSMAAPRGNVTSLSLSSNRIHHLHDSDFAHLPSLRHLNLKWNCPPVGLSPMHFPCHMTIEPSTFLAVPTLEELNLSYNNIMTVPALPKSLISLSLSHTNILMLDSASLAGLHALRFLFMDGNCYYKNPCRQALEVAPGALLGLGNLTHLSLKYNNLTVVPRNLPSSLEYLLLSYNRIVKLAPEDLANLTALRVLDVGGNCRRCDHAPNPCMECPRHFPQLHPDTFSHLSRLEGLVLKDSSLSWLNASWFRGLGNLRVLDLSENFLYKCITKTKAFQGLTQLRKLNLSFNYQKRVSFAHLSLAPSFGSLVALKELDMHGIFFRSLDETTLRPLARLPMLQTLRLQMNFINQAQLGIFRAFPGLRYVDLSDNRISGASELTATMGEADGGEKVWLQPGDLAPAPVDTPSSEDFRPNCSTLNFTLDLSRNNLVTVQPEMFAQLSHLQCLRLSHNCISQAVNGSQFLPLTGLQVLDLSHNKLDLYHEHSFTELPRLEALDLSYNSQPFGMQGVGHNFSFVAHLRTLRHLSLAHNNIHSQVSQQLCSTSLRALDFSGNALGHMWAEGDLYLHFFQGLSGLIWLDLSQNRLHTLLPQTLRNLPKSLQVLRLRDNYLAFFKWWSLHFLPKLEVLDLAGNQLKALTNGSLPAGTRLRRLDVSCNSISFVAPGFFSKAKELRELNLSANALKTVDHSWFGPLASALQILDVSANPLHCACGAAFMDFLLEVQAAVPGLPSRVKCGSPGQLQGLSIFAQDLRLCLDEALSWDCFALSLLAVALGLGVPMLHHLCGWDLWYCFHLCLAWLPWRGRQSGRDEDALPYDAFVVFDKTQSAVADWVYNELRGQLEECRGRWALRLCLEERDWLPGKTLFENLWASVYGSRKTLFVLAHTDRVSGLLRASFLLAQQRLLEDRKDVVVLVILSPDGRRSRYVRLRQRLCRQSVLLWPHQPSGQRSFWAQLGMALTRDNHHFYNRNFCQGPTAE
Put plainly: HEK293-Blue-hTLR-9 cells assay (SEAP reporter, ODN2006 stimulation). The format is cell-based. To be noted: HEK293-Blue-hTLR9 cells, ODN2006, 20 hrs. As for the experimental part: The following tests were carried out in order to determine the activity of the compounds of formula (I) in HEK293-Blue-hTLR-7/8/9 cells assay.
HEK293-Blue-hTLR-9 Cells Assay:
A stable HEK293-Blue-hTLR-9 cell line was purchased from InvivoGen (Cat. #. hkb-htlr9, San Diego, Calif., USA). These cells were originally designed for studying the stimulation of human TLR9 by monitoring the activation of NF-κB. A SEAP (secreted embryonic alkaline phosphatase) reporter gene was placed under the control of the […] minimal promoter fused to five NF-κB and AP-1-binding sites. The SEAP was induced by activating NF-κB and AP-1 via stimulating HEK-Blue hTLR9 cells with TLR9 ligands. Therefore the reporter expression was declined by TLR9 antagonist under the stimulation of a ligand, such as ODN2006 (Cat. #: tlrl-2006-1, Invivogen, San Diego, Calif., USA), for incubation of 20 hrs. The cell culture supernatant SEAP reporter activity was determined using QUANTI-Blue™ kit (Cat. #: rep-qbl, Invivogen, San Diego, Calif., USA) at a wavelength of 640 nm, a detection medium that turns purple or blue in the presence of alkaline phosphatase.
HEK293-Blue-hTLR9 cells were incubated at a density of […] cells/mL in a volume of 170 μL, in a 96-well plate in Dulbecco's Modified Eagle's medium (DMEM) containing 4.5 g/L glucose, 50 U/mL penicillin, […], […], 2 mM L-glutamine, 10% (v/v) heat-inactivated fetal bovine serum with addition of 20 μL test compound in a serial dilution in the presence of final DMSO at 1% and 10 μL of 20 uM ODN2006 in above DMEM, perform incubation under 37° C. in a CO2 incubator for 20 hrs. Then 20 μL of the supernatant from each well was incubated with 180 μL Quanti-blue substrate solution at 37° C. for 2 hrs and the absorbance was read at 620˜655 nm using a spectrophotometer. The signalling pathway that TLR9 activation leads to downstream NF-κB activation has been widely accepted, and therefore similar reporter assay was modified for evaluating TLR9 antagonist.
Turning to `C[C@@H]1CN(c2ccc(C(F)(F)F)c3ncccc23)C[C@H](C(=O)NC2C[C@H]3C[C@@H]2CN3)O1` (stereo partly drawn) [Example 44], it took 15.7 µM to reach half-maximal inhibition (IC50). Consider `C[C@@H]1CN(c2ccc(C(F)(F)F)c3ncccc23)C[C@H](C(=O)NC2CNC[C@@H]2F)O1` (stereo partly drawn) [Example 2, cis-(2R,6R)-N-(4-fluoropyrrolidin-3-yl)-6-methyl-4-[8-(trifluoromethyl)-5-quinolyl]morpholine-2-carboxamide], for which the IC50 (in general, the midpoint of a concentration-inhibition curve) was 51.8 µM. The compound `C[C@@H]1CN(c2ccc(C(F)(F)F)c3ncccc23)C[C@H](C(=O)NCC2CNCCO2)O1` (stereo partly drawn) [Example 48, (2R,6R)-6-methyl-N-(morpholin-2-ylmethyl)-4-[8-(trifluoromethyl)-5-quinolyl]morpholine-2-carboxamide] registered an IC50 of 11.7 µM. In turn, `C[C@@H]1CN(c2ccc(C(F)(F)F)c3ncccc23)C[C@H](C(=O)NC[C@@H]2C[C@@H](F)CN2)O1` [Example 27, (2R,6R)-N-[[(2S,4R)-4-fluoropyrrolidin-2-yl]methyl]-6-methyl-4-[8-(trifluoromethyl)-5-quinolyl]morpholine-2-carboxamide] gave an IC50 of 28.1 µM. Compared with the last compound, the IC50 is about 2.4-fold higher. For the compound `C[C@@H]1CN(c2ccc([N+](=O)[O-])c3ncccc23)C[C@H](C(=O)NCC2CN(C)CCO2)O1` (stereo partly drawn) [Example 18, (2R,6R)-6-methyl-N-[(4-methylmorpholin-2-yl)methyl]-4-(8-nitro-5-quinolyl)morpholine-2-carboxamide], it took 54.8 µM to reach half-maximal inhibition (IC50). Then `Cc1ccc(N2C[C@@H](C)C[C@@H](N)C2)c2cccnc12` [Example 15, (3R,5S)-5-methyl-1-(8-methyl-5-quinolyl)piperidin-3-amine], with 14 µM; and `C[C@@H]1CN(c2ccc(C(F)(F)F)c3ncccc23)C[C@H](C(=O)NCC2CCCCN2C)O1` (stereo partly drawn) [Example 4, (2R,6R)-6-methyl-N-[(1-methyl-2-piperidyl)methyl]-4-[8-(trifluoromethyl)-5-quinolyl]morpholine-2-carboxamide], with 11.4 µM; and `C[C@@H]1CN(c2ccc(C(F)(F)F)c3ncccc23)C[C@H](C(=O)NC2CC3CNCC(C3)C2)O1` (stereo partly drawn) [Example 37, (2R,6R)-N-(3-azabicyclo[3.3.1]nonan-7-yl)-6-methyl-4-[8-(trifluoromethyl)-5-quinolyl]morpholine-2-carboxamide], with 7.8 µM. In turn, `C[C@@H]1CN(c2ccc(C(F)(F)F)c3ncccc23)C[C@H](C(=O)NC2CC3CCC(C2)N3)O1` (single isomer, unassigned) [Example 47A] had a half-maximal inhibitory concentration (IC50) of 10.1 µM. The compound `CC(NC(=O)[C@H]1CN(c2ccc(C(F)(F)F)c3ncccc23)C[C@@H](C)O1)C1CN(C)CCO1` (single isomer, unassigned) [Example 35A] showed a half-maximal inhibitory concentration (IC50) of 42.7 µM.

With `C[C@@H]1CN(c2ccc(C(F)(F)F)c3ncccc23)C[C@H](C(=O)NC2C3CNCC2COC3)O1` (single isomer, unassigned) [Example 46B], the midpoint of inhibition, the IC50, lay at 15.3 µM. `C[C@@H]1CN(c2ccc(Cl)c3ncccc23)C[C@H](C(=O)NCC2CN(C)CCO2)O1` (stereo partly drawn) [Example 26, (2R,6R)-4-(8-chloro-5-quinolyl)-6-methyl-N-[(4-methylmorpholin-2-yl)methyl]morpholine-2-carboxamide]: the IC50 amounted to 46 µM. In turn, `Cc1ccc(N2C[C@@H](C)O[C@@H](C(=O)NCC3CN(C)CCO3)C2)c2cccnc12` (stereo partly drawn) [Example 17, (2R,6R)-6-methyl-N-[(4-methylmorpholin-2-yl)methyl]-4-(8-methyl-5-quinolyl)morpholine-2-carboxamide] yielded an IC50 of more than 100 µM.

In the case of `C[C@@H]1CN(c2ccc(C(F)(F)F)c3ncccc23)C[C@H](C(=O)NC2CC3CCCC(C2)N3)O1` (single isomer, unassigned) [Example 34B], the concentration for half-maximal inhibition (IC50) turned out to be 10 µM.

The compound `C[C@@H]1CN(c2ccc(Cl)c3ncccc23)C[C@H](C(=O)NC2CCCNCC2)O1` (stereo partly drawn) [Example 25, (2R,6R)-N-(azepan-4-yl)-4-(8-chloro-5-quinolyl)-6-methyl-morpholine-2-carboxamide] registered a half-maximal inhibitory concentration (IC50) of 12.4 µM. Compound `C[C@@H]1CN(c2ccc(C(F)(F)F)c3ncccc23)C[C@H](C(=O)NC2CC3CNCC32)O1` (single isomer, unassigned) [Example 49C] yielded an IC50 of 7.7 µM.

Compound `C[C@@H]1CN(c2ccc(C(F)(F)F)c3ncccc23)C[C@H](C(=O)NC2CNCCOC2)O1` (stereo partly drawn) [Example 14, (2R,6R)-6-methyl-N-(1,4-oxazepan-6-yl)-4-[8-(trifluoromethyl)-5-quinolyl]morpholine-2-carboxamide] came in with a 50% inhibitory concentration (IC50) of 29.4 µM. `C[C@@H]1CN(c2ccc(C(F)(F)F)c3ncccc23)C[C@H](C(=O)NC2CC3CNCC32)O1` (single isomer, unassigned) [Example 49A] yielded a half-inhibitory concentration (IC50) of 10.7 µM. Turning to `C[C@@H]1CN(c2ccc(C(F)(F)F)c3ncccc23)C[C@H](C(=O)N[C@H]2CNC[C@H]2F)O1` (single isomer, unassigned) [Example 2B], the IC50 worked out at 34.6 µM.

`C[C@@H]1CN(c2ccc(C(F)(F)F)c3ncccc23)C[C@H](C(=O)N2CCC(N)CC2)O1` [Example 12, (4-amino-1-piperidyl)-[(2R,6R)-6-methyl-4-[8-(trifluoromethyl)-5-quinolyl]morpholin-2-yl]methanone]: the IC50 is 6.3 µM. The compound `C[C@@H]1CN(c2ccc(Br)c3ncccc23)C[C@H](C(=O)NC2CCN(C)CC2)O1` [Example 42, (2R,6R)-4-(8-bromo-5-quinolyl)-6-methyl-N-(1-methyl-4-piperidyl)morpholine-2-carboxamide] had a 50% inhibitory concentration (IC50) of 10.6 µM. In turn, `C[C@@H]1CN(c2ccc(C(F)(F)F)c3ncccc23)C[C@H](C(=O)NC2CNCC(F)(F)C2)O1` (stereo partly drawn) [Example 28, (2R,6R)-N-(5,5-difluoro-3-piperidyl)-6-methyl-4-[8-(trifluoromethyl)-5-quinolyl]morpholine-2-carboxamide] had an IC50 of more than 100 µM. In the case of `C[C@@H]1CN(c2ccc(Br)c3ncccc23)C[C@H](C(=O)NC2CNCC2F)O1` (stereo partly drawn) [Example 41, cis-(2R,6R)-4-(8-bromo-5-quinolyl)-N-[4-fluoropyrrolidin-3-yl]-6-methyl-morpholine-2-carboxamide], the IC50 came to 23.2 µM. The result for `C[C@@H]1CN(c2ccc(C(F)(F)F)c3ncccc23)C[C@H](C(=O)NC2CC3CCCC(C2)N3)O1` (single isomer, unassigned) [Example 34A] reads 8.5 µM; that for `C[C@@H]1CN(c2ccc([N+](=O)[O-])c3ncccc23)C[C@H](C(=O)N[C@@H]2CNC[C@@H]2F)O1` [Example 19, cis-(2R,6R)-N-[41-fluoropyrrolidin-3-yl]-6-methyl-4-(8-nitro-5-quinolyl)morpholine-2-carboxamide], 50.7 µM; that for `C[C@@H]1CN(c2ccc(C(F)(F)F)c3ncccc23)C[C@H](C(=O)NC2CCN(C)CC2)O1` [Example 5, (2R,6R)-6-methyl-N-(1-methyl-4-piperidyl)-4-[8-(trifluoromethyl)-5-quinolyl]morpholine-2-carboxamide], 15.5 µM. Regarding `C[C@@H]1CN(c2ccc(C(F)(F)F)c3ncccc23)C[C@H](C(=O)N2CCC(N)C2)O1` (stereo partly drawn) [Example 10, (3-aminopyrrolidin-1-yl)-[(2R,6R)-6-methyl-4-[8-(trifluoromethyl)-5-quinolyl]morpholin-2-yl]methanone], the half-inhibitory concentration (IC50) came to 18.4 µM.
